# Data as given in patent US11234968B2, “Use of VCP inhibitor and oncolytic virus in the preparation of an anti-tumor drug” (priority 2016, dated 2022).
# Several values for one entry are separate records, joined by “and”; a condition that tells them apart may be missing. Equal entries are not always repeated.
# Columns and labels:
# [1] = tested on: human liver cancer cell Hep3B; experiment: MTT survival rate of Hep3B cells, VCP inhibitor and/or M1 virus (Example 2); format: cell-based
# Experimental: b) Reaction of MTT (3-(4,5-dimethylthiazol-2-yl)-2,5-diphenyltetrazolium bromide) with succinate dehydrogenase in the cells as follows: 48 hours after culture, 20 μl MTT (5 mg/ml) was added into each well, and was incubated for further 4 hours.
# c) Dissolution of formazan particles formed in the cells was accomplished as follows: the supernatant was carefully sucked off, 100 μl/well DMSO was added to dissolve the formed crystals, and was shaken in a microoscillator for 5 minutes. Then, the optical density (OD value) of each well was detected in an enzyme linked detector at a wavelength of 570 nm. The experiments were repeated for 3 times for each group. The survival rate of the cells=OD value of the drug treatment group/OD value of the control group×100%.
# Single and double asterisks in FIGS. 2(A) and 2(B) indicate results with one way ANOVA analysis showing a statistical difference with a single asterisk (*) indicating P<0.05 and a double asterisk (**) indicating P<0.01.
# [2] = tested on: human liver cancer cell Hep3B; experiment: Morphological observation by phase contrast microscope (Example 1); format: cell-based; conditions: Eeyarestatin I 5 μM and/or M1 virus MOI=0.001; 48 hours after treatment
# Experimental: b) Cell treatment and morphological observation: The cells in exponential growth phase were selected and added into a DMEM complete culture medium (containing 10% fetal bovine serum, 1% penicillin/streptomycin (Life Technologies)) to prepare a cell suspension. The cells were inoculated into a 24-well culture plate at a density of 2.5×10^4/well. Each well was then treated by addition of Eeyarestatin I (5 μM), M1 virus (MOI=0.001) or Eeyarestatin I (5 μM) plus M1 virus (MOI=0.001) or left untreated as a control.
# [3] = tested on: endoplasmic reticulum stress markers (IRE1, XBP1(S), BiP, p-PERK, p-eIF2a, ATF6, poly-ub; caspase-12, CHOP, p-JNK); experiment: Western blot of endoplasmic reticulum stress markers and ER stress-associated apoptosis in Hep3B (Example 5); format: cell-based, human; conditions: Eeyarestatin I 5 μM and/or M1 virus MOI=0.001
# Experimental: The cells in the exponential growth phase were selected and added into a DMEM complete culture medium to prepare a cell suspension. The cells were inoculated into a 60 mm culture dish at a density of 1×10^6. After 12 hours the cells were completely adherent to the wall. […] The dose was used as follows: M1 virus (MOI=0.001) that infected cells; Eeyarestatin I (5 μM).
# After the time of drug treatment was set up, the protein samples were collected to carry out the Western blot for detecting the marker of endoplasmic reticulum stress (IRE1 XBP1(S), BiP, p-PERK, p-eIF2a, ATF6, poly-ub); and the activation of the pathway of endoplasmic reticulum stress-associated apoptosis (caspase-12, CHOP, p-JNK).
Structure (SMILES),reduction in cell number ([1]; 5 μM alone) [%],"survival rate of tumor cells ([1]; 5 μM alone, 48 hours, MTT)",morphology of the cells [2],endoplasmic reticulum stress-associated markers and apoptosis pathway [3],"relative survival rates ([1]; CB-5083 alone compared to combination with M1 (MOI=0.001), 0.124 to 2 μM, FIG. 2(B))"
CC1(C)C(N(O)C(=O)Nc2ccc(Cl)cc2)N(c2ccc(Cl)cc2)C(=O)N1CC(=O)N/N=C/C=C/c1ccc([N+](=O)[O-])o1 (centres unmarked) [Eeyarestatin I],12.8,87.2% and 78.2%,morphology of the cells was not changed significantly,"induce the increase of endoplasmic reticulum stress-associated markers such as IREI, XBPI (S), p-PERK, p-eIF2a",
Cc1cc2c(C(N)=O)cccc2n1-c1nc2c(c(NCc3ccccc3)n1)COCC2 [CB-5083],,,,,significantly higher relative survival rates
